From patent US10004792B2, “Peptides and combination of peptides for use in immunotherapy against various cancers” (immatics biotechnologies GmbH, priority 2015, dated 2018)

system: CD8+ T cells; assay: In vitro immunogenicity: T-cell priming with aAPCs loaded with peptide/MHC and anti-CD28, multimer staining; assay type: cell-based, human; details: healthy donor CD8+ T cells, three stimulation cycles, multimer readout
Description: In order to obtain information regarding the immunogenicity of the TUMAPs of the present invention, the inventors performed investigations using an in vitro T-cell priming assay based on repeated stimulations of CD8+ T cells with artificial antigen presenting cells (aAPCs) loaded with peptide/MHC complexes and anti-CD28 antibody.
In order to perform in vitro stimulations by artificial antigen presenting cells loaded with peptide-MHC complex (pMHC) and anti-CD28 antibody, the inventors first isolated CD8+ T cells from fresh HLA-A*02 leukapheresis products via positive selection using CD8 microbeads (Miltenyi Biotec, Bergisch-Gladbach, Germany) of healthy donors obtained from the University clinics Mannheim, Germany, after informed consent.
PBMCs and isolated CD8+ lymphocytes were incubated in T-cell medium (TCM) until use consisting of RPMI-Glutamax (Invitrogen, Karlsruhe, Germany) supplemented with 10% heat inactivated human AB serum (PAN-Biotech, Aidenbach, Germany), 100 U/ml Penicillin/100 μg/ml Streptomycin (Cambrex, Cologne, Germany), 1 mM sodium pyruvate (CC Pro, Oberdorla, Germany), 20 µg/ml Gentamycin (Cambrex). 2.5 ng/ml IL7 (PromoCell, Heidelberg, Germany) and 10 U/ml IL-2 (Novartis Pharma, Nurnberg, Germany) were also added to the TCM at this step.
Generation of pMHC/anti-CD28 coated beads, T-cell stimulations and readout was performed in a highly defined in vitro system using four different pMHC molecules per stimulation condition and 8 different pMHC molecules per readout condition.
The purified co-stimulatory mouse IgG2a anti human CD28 Ab 9.3 (Jung et al., 1987) was chemically biotinylated using Sulfo-N-hydroxysuccinimidobiotin as recommended by the manufacturer (Perbio, Bonn, Germany). Beads used were 5.6 μm diameter streptavidin coated polystyrene particles (Bangs Laboratories, Illinois, USA).
pMHC used for positive and negative control stimulations were A*0201/MLA-001 (peptide […] (SEQ ID NO. 303) from modified Melan-A/MART-1) and A*0201/DDX5-001 ([…] from DDX5, SEQ ID NO. 304), respectively.
800.000 beads/200 μl were coated in 96-well plates in the presence of 4×12.5 ng different biotin-pMHC, washed and 600 ng biotin anti-CD28 were added subsequently in a volume of 200 μl. Stimulations were initiated in 96-well plates by co-incubating 1×10^6 CD8+ T cells with 2×10^5 washed coated beads in 200 μI TCM supplemented with 5 ng/ml IL-12 (PromoCell) for 3 days at 37° C. Half of the medium was then exchanged by fresh TCM supplemented with 80 U/ml IL-2 and incubating was continued for 4 days at 37° C. This stimulation cycle was performed for a total of three times. For the pMHC multimer readout using 8 different pMHC molecules per condition, a two-dimensional combinatorial coding approach was used as previously described (Andersen et al., 2012) with minor modifications encompassing coupling to 5 different fluorochromes. Finally, multimeric analyses were performed by staining the cells with Live/dead near IR dye (Invitrogen, Karlsruhe, Germany), CD8-FITC antibody clone SK1 (BD, Heidelberg, Germany) and fluorescent pMHC multimers. For analysis, a BD LSRII SORP cytometer equipped with appropriate lasers and filters was used. Peptide specific cells were calculated as percentage of total CD8+ cells. Evaluation of multimeric analysis was done using the FlowJo software (Tree Star, Oreg., USA). In vitro priming of specific multimer+CD8+ lymphocytes was detected by comparing to negative control stimulations.

Substance	Wells (in vitro immunogenicity)
296 (TYVDSSHTI; listed as Homo sapiens) [compound 296]	+ (<20% = +)
290 (KIVDFSYSV; listed as Homo sapiens) [compound 290]	++ (20%-49% = ++)
301 (AYKPGALTF; listed as Homo sapiens) [compound 301]	+ (<20% = +)
295 (YYPGVILGF; listed as Homo sapiens) [compound 295]	++ (20%-49% = ++)
293 (FLVDGSWSI; listed as Homo sapiens) [compound 293]	+ (<20% = +)
291 (KLDETGNSL; listed as Homo sapiens) [compound 291]	+ (<20% = +)

same assay, conditions: in vitro immunogenicity of HLA class I peptides; peptide-specific multimer staining after aAPC priming of CD8+ T cells

Substance	Wells positive [%]
196 (LYIDRPLPYL; listed as Homo sapiens) [compound 196]	++++ (>=70% = ++++)
26 (ALQEELTEL; listed as Homo sapiens) [compound 26]	+ (<20% = +)
31 (TITETTVEV; listed as Homo sapiens) [compound 31]	+ (<20% = +)
269 (YFIDSTNLKTHF; listed as Homo sapiens) [compound 269]	+ (<20% = +)
5 (GIVAHIQEV; listed as Homo sapiens) [compound 5]	+ (<20% = +)
230 (KLQNIMMLL; listed as Homo sapiens) [compound 230]	++++ (>=70% = ++++)
149 (ILNTHITEL; listed as Homo sapiens) [compound 149]	+ (<20% = +)
18 (ILLDLTDNRL; listed as Homo sapiens) [compound 18]	+ (<20% = +)
197 (EYSLFPGQVVI; listed as Homo sapiens) [compound 197]	+ (<20% = +)
268 (QYLGQIQHI; listed as Homo sapiens) [compound 268]	+ (<20% = +)
141 (FLDKVLVAA; listed as Homo sapiens) [compound 141]	+ (<20% = +)
90 (FLQDLEQRL; listed as Homo sapiens) [compound 90]	+ (<20% = +)
35 (FLLPFSTVYL; listed as Homo sapiens) [compound 35]	+ (<20% = +)

system: HLA-A*24; assay: MHC binding assay (UV-ligand exchange, beta2m ELISA), HLA-A*24; design: species or system human; details: peptide exchange yield, binding to HLA-A*24, UV-ligand exchange, β2m ELISA
Description: Candidate peptides for T cell based therapies according to the present invention were further tested for their MHC binding capacity (affinity). The individual peptide-MHC complexes were produced by UV-ligand exchange, where a UV-sensitive peptide is cleaved upon UV-irradiation, and exchanged with the peptide of interest as analyzed. Only peptide candidates that can effectively bind and stabilize the peptide-receptive MHC molecules prevent dissociation of the MHC complexes. To determine the yield of the exchange reaction, an ELISA was performed based on the detection of the light chain (β2m) of stabilized MHC complexes. The assay was performed as generally described in Rodenko et al. (Rodenko et al., 2006).
96 well MAXISorp plates (NUNC) were coated over night with 2 ug/ml streptavidin in PBS at room temperature, washed 4× and blocked for 1 h at 37° C. in 2% BSA containing blocking buffer. Refolded HLA-A*02:01/MLA-001 monomers served as standards, covering the range of 15-500 ng/ml. Peptide-MHC monomers of the UV-exchange reaction were diluted 100 fold in blocking buffer. Samples were incubated for 1h at 37° C., washed four times, incubated with 2 ug/ml HRP conjugated anti-62m for 1 h at 37° C., washed again and detected with TMB solution that is stopped with […]. Absorption was measured at 450 nm. Candidate peptides that show a high exchange yield (preferably higher than 50%, most preferred higher than 75%) are generally preferred for a generation and production of antibodies or fragments thereof, and/or T cell receptors or fragments thereof, as they show sufficient avidity to the MHC molecules and prevent dissociation of the MHC complexes.

Substance	Peptide exchange
161 (IYLVSIPEL; listed as Homo sapiens) [compound 161]	++++ (>=75% = ++++)
160 (VYTLDIPVL; listed as Homo sapiens) [compound 160]	++++ (>=75% = ++++)
166 (YYVESGKLF; listed as Homo sapiens) [compound 166]	++++ (>=75% = ++++)

Results, then the substance that gave them:

Peptide exchange	Substance
++++ (>=75% = ++++)	193 (RFHPTPLLL; listed as Homo sapiens) [compound 193]
++++ (>=75% = ++++)	271 (LYHDIFSRL; listed as Homo sapiens) [compound 271]
++++ (>=75% = ++++)	280 (RYPDNLKHLYL; listed as Homo sapiens) [compound 280]
++++ (>=75% = ++++)	168 (KYQDILETI; listed as Homo sapiens) [compound 168]
++++ (>=75% = ++++)	217 (FFPPTRQMGLLF; listed as Homo sapiens) [compound 217]
++++ (>=75% = ++++)	187 (TYLRDQHFL; listed as Homo sapiens) [compound 187]
++++ (>=75% = ++++)	175 (YYEVHKELF; listed as Homo sapiens) [compound 175]
++++ (>=75% = ++++)	227 (IFLDYEAGTLSF; listed as Homo sapiens) [compound 227]
++++ (>=75% = ++++)	195 (TYSVSFPMF; listed as Homo sapiens) [compound 195]
++++ (>=75% = ++++)	216 (QYSSVFKSL; listed as Homo sapiens) [compound 216]
++++ (>=75% = ++++)	277 (VYQGHTALL; listed as Homo sapiens) [compound 277]
++++ (>=75% = ++++)	184 (VFQNFPLLF; listed as Homo sapiens) [compound 184]
++++ (>=75% = ++++)	282 (KFVDSTFYL; listed as Homo sapiens) [compound 282]
++++ (>=75% = ++++)	267 (KYMVYPQTF; listed as Homo sapiens) [compound 267]
++++ (>=75% = ++++)	228 (KYTSWYVAL; listed as Homo sapiens) [compound 228]
++++ (>=75% = ++++)	173 (IYSWILDHF; listed as Homo sapiens) [compound 173]

Peptide exchange	Substance
++++ (>=75% = ++++)	192 (SYALLTYMI; listed as Homo sapiens) [compound 192]
++++ (>=75% = ++++)	211 (YYLEVGKTLI; listed as Homo sapiens) [compound 211]
++++ (>=75% = ++++)	276 (VYGFQWRHF; listed as Homo sapiens) [compound 276]
++++ (>=75% = ++++)	289 (KYPVEWAKF; listed as Homo sapiens) [compound 289]
++++ (>=75% = ++++)	278 (RYISDQLFTNF; listed as Homo sapiens) [compound 278]
++++ (>=75% = ++++)	177 (VYPWLGALL; listed as Homo sapiens) [compound 177]
++++ (>=75% = ++++)	274 (AYLHSHALI; listed as Homo sapiens) [compound 274]
+ (<20% = +)	194 (EFGSLHLEFL; listed as Homo sapiens) [compound 194]
++++ (>=75% = ++++)	172 (TYTTVPRVAF; listed as Homo sapiens) [compound 172]
++++ (>=75% = ++++)	179 (MYDSYWRQF; listed as Homo sapiens) [compound 179]
++++ (>=75% = ++++)	210 (IYTMIYRNL; listed as Homo sapiens) [compound 210]
++++ (>=75% = ++++)	181 (LYLDIINLF; listed as Homo sapiens) [compound 181]
++++ (>=75% = ++++)	272 (QYLQDAYSF; listed as Homo sapiens) [compound 272]
++++ (>=75% = ++++)	186 (IFPQFLYQF; listed as Homo sapiens) [compound 186]
++++ (>=75% = ++++)	202 (VYWDSAGAAHF; listed as Homo sapiens) [compound 202]
